Results published in paper PMC7294809, “Discovery of an Allosteric Binding Site in Kinetoplastid Methionyl-tRNA Synthetase” (ACS Infectious Diseases, 2020).
≈ marks a conversion by molar mass, not a printed value. Where two headings read alike, the source gives them in different places.

How the values were obtained:
[1] = molecular target: LdMetRS (Leishmania donovani, UniProt A0A3Q8IBX2); assay: LdMetRS BIOMOL Green biochemical assay, 10-point dose response; conditions: 50 μM methionine, 100 μM ATP; for IC50: read-out: LdMetRS pIC50 (converted)
Sequence of LdMetRS (A0A3Q8IBX2 entry or part of it): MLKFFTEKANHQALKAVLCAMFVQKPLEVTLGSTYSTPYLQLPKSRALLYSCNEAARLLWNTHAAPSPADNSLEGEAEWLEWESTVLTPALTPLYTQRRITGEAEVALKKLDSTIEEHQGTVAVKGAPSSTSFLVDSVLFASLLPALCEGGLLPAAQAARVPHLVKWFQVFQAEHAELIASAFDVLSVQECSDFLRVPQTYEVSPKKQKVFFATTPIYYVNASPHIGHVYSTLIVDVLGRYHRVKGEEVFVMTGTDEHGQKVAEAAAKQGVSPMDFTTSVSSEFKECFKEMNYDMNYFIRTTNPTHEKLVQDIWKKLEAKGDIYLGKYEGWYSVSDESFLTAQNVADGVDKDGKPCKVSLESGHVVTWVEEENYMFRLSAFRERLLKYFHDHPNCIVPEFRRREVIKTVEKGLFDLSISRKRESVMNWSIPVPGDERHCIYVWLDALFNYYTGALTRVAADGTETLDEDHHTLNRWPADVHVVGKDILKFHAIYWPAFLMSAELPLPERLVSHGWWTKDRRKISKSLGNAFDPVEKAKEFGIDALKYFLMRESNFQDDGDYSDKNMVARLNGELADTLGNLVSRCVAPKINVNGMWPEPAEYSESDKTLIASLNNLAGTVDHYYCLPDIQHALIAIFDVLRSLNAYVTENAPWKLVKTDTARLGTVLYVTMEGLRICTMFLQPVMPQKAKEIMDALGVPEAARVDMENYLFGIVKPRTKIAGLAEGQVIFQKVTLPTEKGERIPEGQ

[2] = CHI LogD measurement; format: physicochemical
Protocol: CHI LogD measurements were performed as described elsewhere.[29] cLogP measurements were calculated using StarDrop (Optibrium).

[3] = molecular target: TcMetRS (Trypanosoma cruzi, UniProt Q4D6H2); assay: TcMetRS BIOMOL Green biochemical assay, 10-point dose response; conditions: for IC50 / Emax: 50 μM methionine, 100 μM ATP; for IC50: 80 nM TcMetRS, read-out: TcMetRS pIC50 (converted); for TcMetRS Maximum % Inhibition Plateau: Table 3, plateau of dose-response curve; for Emax: read-out: TcMetRS Maximum % Inhibition
Sequence of TcMetRS (Q4D6H2 entry or part of it): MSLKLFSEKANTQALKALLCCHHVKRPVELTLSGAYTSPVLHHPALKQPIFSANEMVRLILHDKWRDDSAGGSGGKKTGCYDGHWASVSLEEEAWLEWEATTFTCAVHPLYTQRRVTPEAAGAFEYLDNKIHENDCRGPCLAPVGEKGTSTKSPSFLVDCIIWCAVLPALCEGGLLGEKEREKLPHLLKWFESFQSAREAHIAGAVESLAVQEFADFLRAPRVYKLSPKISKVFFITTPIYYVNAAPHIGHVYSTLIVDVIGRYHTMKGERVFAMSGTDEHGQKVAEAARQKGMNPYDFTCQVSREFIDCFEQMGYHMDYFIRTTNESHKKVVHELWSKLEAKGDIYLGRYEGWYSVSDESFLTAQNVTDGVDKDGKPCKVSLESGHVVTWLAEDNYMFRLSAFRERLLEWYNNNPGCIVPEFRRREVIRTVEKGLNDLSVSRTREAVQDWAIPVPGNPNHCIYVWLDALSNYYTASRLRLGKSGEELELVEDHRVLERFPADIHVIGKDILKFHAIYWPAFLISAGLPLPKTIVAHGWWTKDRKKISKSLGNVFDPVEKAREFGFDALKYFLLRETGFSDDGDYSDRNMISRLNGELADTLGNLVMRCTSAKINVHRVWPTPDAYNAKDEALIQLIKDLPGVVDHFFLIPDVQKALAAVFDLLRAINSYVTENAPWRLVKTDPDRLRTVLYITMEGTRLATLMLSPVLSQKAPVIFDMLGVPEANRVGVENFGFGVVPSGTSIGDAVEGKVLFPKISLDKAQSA

[4] = Aqueous solubility, filtration-based method; format: physicochemical; conditions: phosphate-buffered saline pH 7.4, 24 h, 25 °C; for solubility at 24 h: aqueous buffer, kinetic from dmso stock
Protocol: Solubility was assessed using a filtration-based method. Test compounds were dissolved in DMSO to give 10 mM solutions. Five microliters of the 10 mM solution was added to 195 μL of phosphate-buffered saline at pH 7.4 and mixed for 24 h (rotary mixing, 900 rpm, 25 °C) excluding light. After mixing, the samples were filtered to remove any undissolved material using a Millipore Multiscreen HTS filter. The filtrate was analyzed for dissolved drug compounds using UHPLC.

[5] = 50 nM LdMetRS, pIC50 = −log IC50 (M)
[6] = chromatographic hydrophobicity index
[7] = plateau of dose-response curve, read-out: LdMetRS Maximum % Inhibition Plateau
[8] = chromatography (chromatographic hydrophobicity index)
[9] = Table 2, read-out: LdMetRS Maximum % Inhibition

| SMILES | IC50 [1, 5] | chromatographic logD [2, 6] | IC50 [3] | solubility at 24 h [4] | Emax [1, 7] | chromatographic logD [2, 8] | TcMetRS Maximum % Inhibition Plateau [3] | Emax [3] | Emax [1, 9] | Aqueous Solubility [4] | LdMetRS Maximum % Inhibition Plateau ([1]; plateau of dose-response curve) | LdMetRS pIC50 [1, 5] |
| --- | --- | --- | --- | --- | --- | --- | --- | --- | --- | --- | --- | --- |
| COc1ccc(Nc2nc(NCCO)c3cnn(C)c3n2)cc1Cl [Compound 7] | > 0.0001 M |  |  |  |  |  |  |  |  |  |  |  |
| CN(CCO)c1nc(Nc2ccc(F)c(F)c2)nc2c1cnn2C [Compound 20] | 2.51e-06 M | 1.99 | > 100 µM | 2.4 µM (≈ 0.802 µg/mL) | 69.9% |  |  |  |  |  |  |  |
| COCCNc1nc(Nc2ccc(F)c(F)c2)nc2c1cnn2C [Compound 21] | 6.31e-06 M | 2.49 | > 100 µM | 23.3 µM (≈ 7.79 µg/mL) | 99.7% |  |  |  |  |  |  |  |
| Cn1ncc2c(NCCO)nc(Nc3ccc(F)cc3)nc21 [Compound 2] | 2.51e-05 M |  |  |  | 94.2% | 1.32 |  |  |  |  |  |  |
| COC(=O)[C@@H](CO)Nc1nc(Nc2ccc(F)c(F)c2)nc2c1cnn2C [Compound 30] | 1.26e-06 M | 3.78 | 39.8 µM | 29.8 µM (≈ 11.3 µg/mL) | 102% |  | 93.3% |  |  |  |  |  |
| Cn1ncc2c(N3CCC[C@H]3CO)nc(Nc3ccc(F)c(F)c3)nc21 [Compound 25] | 7.94e-06 M | 2.43 | > 100 µM | 6.1 µM (≈ 2.2 µg/mL) | 87.7% |  |  |  |  |  |  |  |
| Cn1ncc2c(NCCO)nc(Nc3cccc(Cl)c3)nc21 [Compound 3] | 1.26e-05 M |  |  |  | 94.7% | 1.82 |  |  |  |  |  |  |
| CC(C)Oc1cc(Nc2nc(NCCO)c3cnn(C)c3n2)ccc1F [Compound 15] | > 0.0001 M |  | > 100 µM |  |  |  |  | 5.4% | 6.9% |  |  |  |
| COC(=O)C1(Nc2nc(Nc3ccc(F)c(F)c3)nc3c2cnn3C)CC1 [Compound 32] | 7.94e-07 M | 4.91 | > 100 µM |  | 94.7% |  |  |  |  |  |  |  |
| Cn1ncc2c(NCCO)nc(NC3CCOCC3)nc21 [Compound 9] | > 0.0001 M | 0.04 | > 100 µM |  |  |  |  | 15% | 17.3% |  |  |  |
| CNC(=O)CNc1nc(Nc2ccc(F)c(F)c2)nc2c1cnn2C [Compound 26] | 2e-05 M | 1.38 | > 100 µM | 201 µM (≈ 69.8 µg/mL) | 68.9% |  |  |  |  |  |  |  |
| Cn1ncc2c(NCCO)nc(Nc3ccc(Cl)cc3)nc21 [Compound 1] | 7.94e-06 M |  |  |  | 89.5% |  |  |  |  |  |  |  |
| Cn1ncc2c(NCCO)nc(Nc3ccc(F)cc3F)nc21 [Compound 6] | 1.26e-05 M |  |  |  | 102% |  |  |  |  |  |  |  |
| Cn1ncc2c(NCCO)nc(N3CCCCC3)nc21 [Compound 10] | > 0.0001 M | 1.49 | > 100 µM |  |  |  |  | 13.6% | 10.8% |  |  |  |
| Cn1ncc2c(Nc3ccc(F)c(F)c3)nc(Nc3ccc(F)c(F)c3)nc21 [Compound 17] | > 0.0001 M | 3.82 | > 100 µM | 0.38 µM (≈ 0.148 µg/mL) |  |  |  |  |  |  |  |  |
| CNc1nc(Nc2ccc(F)c(F)c2)nc2c1cnn2C [Compound 18] | 6.31e-06 M | 2.31 | > 100 µM | 58 µM (≈ 16.8 µg/mL) | 98.7% |  |  |  |  |  |  |  |
| CC(C)Nc1nc(NCCO)c2cnn(C)c2n1 [Compound 11] | > 0.0001 M | 0.63 | > 100 µM |  |  |  |  | 6.3% | 5.3% |  |  |  |
| CC(C)Cc1cc(Nc2nc(NCCO)c3cnn(C)c3n2)ccc1F [Compound 16] | > 0.0001 M |  | > 100 µM |  |  |  |  | 15.4% | 17.1% |  |  |  |
| Cn1ncc2c(NCCO)nc(Nc3ccc(F)c(F)c3)nc21 [Compound 5] | 1.26e-05 M |  |  |  | 98.7% | 1.64 |  |  |  |  |  |  |
| COc1cc(Nc2nc(NCCO)c3cnn(C)c3n2)ccc1F [Compound 14] | > 0.0001 M |  | > 100 µM |  |  |  |  | 4.9% | 36.8% |  |  |  |
| COC(=O)[C@H](Nc1nc(Nc2ccc(F)c(F)c2)nc2c1cnn2C)C(C)C [Compound 29] | 7.94e-07 M | 6.22 | 10 µM | 39.1 µM (≈ 15.3 µg/mL) | 100% |  | 51.5% |  |  |  |  |  |
| Cn1ncc2c(NCCO)nc(Nc3cccc(F)c3)nc21 [Compound 4] | 3.16e-05 M |  |  |  | 83.7% | 1.48 |  |  |  |  |  |  |
| Cn1ncc2c(NC3CCOCC3)nc(Nc3ccc(F)c(F)c3)nc21 [Compound 23] | 7.94e-06 M | 2.45 | > 100 µM | 0.59 µM (≈ 0.213 µg/mL) | 65.4% |  |  |  |  |  |  |  |
| Cn1ncc2c(NC3CCCCC3O)nc(Nc3ccc(F)c(F)c3)nc21 (stereo not shown) [Compound 22] | 3.98e-06 M | 2.5 | > 100 µM |  | 61% |  |  |  |  |  |  |  |
| COC(=O)C(Cc1c[nH]cn1)Nc1nc(Nc2ccc(F)c(F)c2)nc2c1cnn2C (stereo not shown) [Compound 31] | 2e-07 M | 3.63 | 2 µM | 128 µM (≈ 54.8 µg/mL) | 100% |  |  |  |  | good solubility | full inhibition |  |
| Cn1ncc2c(N3CCCCC3)nc(Nc3ccc(F)c(F)c3)nc21 [Compound 24] | > 0.0001 M | 3.93 | > 100 µM | 0.46 µM (≈ 0.158 µg/mL) |  |  |  |  |  |  |  | inactive |
| Cn1ncc2c(NCCO)nc(NC3CCCCC3)nc21 [Compound 8] | > 0.0001 M | 1.74 | > 100 µM |  |  |  |  | 16.3% | 11.1% |  |  |  |
| CN(c1cccc(F)c1)c1nc(NCCO)c2cnn(C)c2n1 [Compound 12] | > 0.0001 M | 1.51 | > 100 µM |  |  |  |  | 11.7% | 10.2% |  |  |  |
| Cc1noc(CNc2nc(Nc3ccc(F)c(F)c3)nc3c2cnn3C)n1 [Compound 28] | 6.31e-06 M |  | > 100 µM | 0.72 µM (≈ 0.268 µg/mL) | 68.7% |  |  |  |  |  |  |  |
